Molecules are shown by their SMILES. Like-named read-outs stand apart in the source and are kept apart here. A value given as a limit tells only on which side of the number the result lay.

Data set [1] deals with T1, GSK3α (Homo sapiens, UniProt P49840). As to the kind of experiment: GSK 3α enzyme inhibition (FRET), Method 1. Type of data set: biochemical. The conditions noted are these: Table 4a1. An outline of the steps: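 Steps: preincubate GSK3α with compound 2 hr at room temperature; start reaction with peptide and ATP for 1 hr; develop with site-specific protease for 1 hr; measure fluorescence and take the coumarin/fluorescein ratio as the phosphorylation level.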

Data set [2] deals with IL-8 release, d-U937 cells. Briefly: LPS-induced IL-8 release in d-U937 cells. It is filed as cell-based. The conditions noted are these: Homo sapiens, dU937. An outline of the steps:
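IL-8 release after a 4 hr challenge with LPS (0.1 μg/mL, E. coli 0111:B4) following a 2 hr compound pretreatment. Cells were human U937 monocytes differentiated to macrophage-type with PMA 100 ng/mL for 48–72 hr. Relative 50% effective concentration derived from concentration–response data.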

In data set [3] the test system is d-U937 cells. As to the kind of experiment: Cell viability: MTT assay. It is filed as cell-based, human. The conditions noted are these: 1 μg/mL. An outline of the steps:
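MTT reduction (1 h, DMSO solubilisation, A550) measured after compound treatment at 1 or 10 μg/mL of differentiated U937 cells for 4 h (5% FCS RPMI1640) or 24 h (10% FCS). Percentage viability loss computed relative to 0.5% DMSO vehicle, with increases tabulated as negative values.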

The test system of data set [4] is ICAM-1 expression, BEAS2B cells. Briefly: Poly I:C-induced ICAM-1 expression in BEAS2B cells. It is filed as cell-based. As to conditions: Homo sapiens, BEAS-2B; read-out: Poly IC induced ICAM1 in BEAS2B, IC50. An outline of the steps:
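Cell-based ELISA for surface ICAM-1 in human BEAS2B cells 18 h after transfection with the RNA-virus mimic poly I:C (1 μg/mL, with Oligofectamine), compounds added 2 h beforehand. OD450–655 divided by Crystal Violet OD595 per well; percent inhibition relative to vehicle.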

Data set [5] relates to TNFα release, d-U937 cells. As to the kind of experiment: LPS-induced TNFα release in d-U937 cells. Type of data set: cell-based. As to conditions: Homo sapiens, dU937; for EC50: relative to 10 μg/mL BIRB796, Table 4c1, read-out: LPS Induced Release of Cytokine in d-U937 Cells, TNFα REC50; for IC50: Table 4c2, different laboratory, read-out: IC50 Values for Inhibition of Cytokine Release, dU937 cells, TNFα. An outline of the steps:
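Sandwich ELISA quantifies cytokine in supernatants after 4 hr LPS challenge (0.1 μg/mL) of PMA-differentiated (100 ng/mL, 48–72 hr) U937 macrophages given compound 2 hr beforehand. REC50 derived from concentration-response curve, inhibition calculated relative to vehicle.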

In data set [6] the target is cSrc (Homo sapiens, UniProt P12931). Briefly: c-Src enzyme inhibition (FRET). It is filed as biochemical. The gist of the method: (§1)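 Enzyme was preincubated with test compound (added as 4, 0.4, 0.04 or 0.004 μg/mL solutions) for 2 hr at RT. FRET peptide (8 μM solution) and ATP solution (800 μM for c-Src, 60 μM for Syk) were then added for 1 hr, followed by 1 hr protease development.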

Data set [7] concerns the target Syk (Homo sapiens, UniProt P43405). Briefly: Syk enzyme inhibition (FRET). Type of data set: biochemical. An outline of the steps:
as §1

In data set [8] the target is p38 MAPKα isoform (MAPK14) (Homo sapiens, UniProt Q16539). As to the kind of experiment: p38 MAPKα enzyme inhibition (FRET, Z-LYTE), Method 1. Type of data set: biochemical. The conditions noted are these: Table 4a1. On the procedure: The enzyme inhibitory activities of compounds disclosed herein are determined by FRET using synthetic peptides labelled with both donor and acceptor fluorophores (Z-LYTE, Invitrogen Ltd., Paisley, UK).
The following two assay variants are used for determination of p38 MAPKα inhibition.
The inhibitory activities of test compounds against the p38 MAPKα isoform (MAPK14: Invitrogen), are evaluated indirectly by determining the level of activation/phosphorylation of the down-stream molecule, MAPKAP-K2. The p38 MAPKα protein (80 ng/mL, 2.5 μL) is mixed with the test compound (2.5 μL of either 4 μg/mL, 0.4 μg/mL, 0.04 μg/mL or 0.004 μg/mL) for 2 hr at RT. […] The mixture is incubated for 1 hr at RT. Development reagent (protease, 5 μL) is added for 1 hr prior to detection in a fluorescence microplate reader (Varioskan® Flash, ThermoFisher Scientific).
In all cases, the site-specific protease cleaves non-phosphorylated peptide only and eliminates the FRET signal. Phosphorylation levels of each reaction are calculated using the ratio of coumarin emission (donor) over fluorescein emission (acceptor), for which high ratios indicate high phosphorylation and low ratios indicate low phosphorylation levels.

Data set [9] concerns IL-2 release, PBMCs. Briefly: IL-2 release in CD3/CD28 stimulated PBMC cells. It is filed as cell-based. As to conditions: Homo sapiens, read-out: IC50 Values for Inhibition of Cytokine Release, PBMCs, IL-2. The procedure:
(§2) (c) IL-2 and IFN Gamma Release in CD3/CD28 Stimulated PBMC Cells
(§3) PBMCs from healthy subjects are separated from whole blood using a density gradient (Lymphoprep, Axis-Shield Healthcare). Cells are added to a 96 well plate pre-coated with a mixture of […] monoclonal antibodies (0.3 ug/ml eBioscience and 3 ug/ml BD Pharmingen respectively). Compound at the desired concentration is then added to the wells and the plate left for 3 days under normal tissue culture conditions. Supernatants are harvested and IL-2 and IFN gamma release determined by Sandwich ELISA (Duo-set, R&D System). The IC50 is determined from the dose response curve.

Data set [10] addresses T1, GSK3α. As to the kind of experiment: GSK 3α enzyme inhibition (FRET), Method 2. As to conditions: Table 4a2, different laboratory. Type of data set: biochemical.
Data set [11] concerns the target T2, human ether a go-go (hERG) channel (Homo sapiens, UniProt Q12809).
T2 construct: a Chinese Hamster Lung cell line stably expressing the full length hERG channel
Briefly: hERG inhibition (IonWorks patch clamp electrophysiology). Type of data set: cell-based. As to conditions: maximum final assay concentration 3 μM. The procedure:
Eight-point concentration curves were generated using serial 3-fold dilutions from the maximum final assay concentration (3 μM). Electrophysiological recordings were made from a Chinese Hamster Lung cell line stably expressing the full length hERG channel. Single cell ionic currents were measured in the perforated patch clamp configuration (100 μg/mL) amphotericin) at room temperature (21-23° C.) using an IonWorks Quattro instrument. The internal solution contained (mM): 140 KCl, 1 MgCl2, 1 EGTA, 20 HEPES and was buffered to pH 7.3. The external solution contained (mM):138 NaCl, 2.7 KCl, 0.9 CaCl2, 0.5 MgCl2, 8 Na2HPO4, 1.5 KH2PO4, also buffered to pH 7.3. Cells were clamped at a holding potential of −70 mV for 30 s and then stepped to +40 mV for 1 s. This was followed by a hyperpolarising step of 1s to −30 mV to evoke the hERG tail current. This sequence was repeated 5 times at a frequency of 0.25 Hz. Currents were measured from the tail step at the 5th pulse, and referenced to the holding current. Compounds were then incubated for 6-7 minutes prior to a second measurement of the hERG signal using an identical pulse train. Eight-point concentration curves were generated using serial 3-fold dilutions from the maximum final assay concentration (3 μM).

The test system of data set [12] is IFN gamma release, PBMCs. As to the kind of experiment: IFN gamma release in CD3/CD28 stimulated PBMC cells. It is filed as cell-based. As to conditions: Homo sapiens, read-out: IC50 Values for Inhibition of Cytokine Release, PBMCs, IFNγ. On the procedure: as §2, §3
The test system of data set [13] is IL-8 release, PBMCs. As to the kind of experiment: LPS-induced IL-8 release in PBMC cells. Type of data set: cell-based. As to conditions: Homo sapiens, LPS stimulated, read-out: IC50 Values for Inhibition of Cytokine Release, PBMCs, IL-8. The gist of the method:
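PBMCs from healthy donors pretreated with compound for 2 h, then stimulated with 1 ng/ml LPS (E. coli 0111:B4) for 24 h at 37 °C, 5% CO2. Supernatant IL-8 and TNFα measured by sandwich ELISA with fluorescence read-out.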

The subject of data set [14] is IL-8 release, HT29 cells. Briefly: IL-1β-induced IL-8 release in HT29 cells. It is filed as cell-based. As to conditions: Homo sapiens, HT-29; IL-1β stimulated; read-out: IC50 Values for Inhibition of Cytokine Release, HT29 cells, IL-8. The procedure:
(d) IL-1β-Induced IL-8 Release in HT29 Cells
HT29 cells, a human colon adenocarcinoma cell line, are plated in a 96 well plate (24 hrs) and pre-treated with compounds at the desired concentration for 2 hours before addition of 5 ng/ml of IL-1β (Abeam) for 24 hours, Supernatants are harvested for IL-8 quantification by Sandwich ELISA (Duo-set, R&D System). The IC50 is determined from the dose response curve.

In data set [15] the test system is PBMC cells. Briefly: Cell mitosis assay. It is filed as cell-based. As to conditions: Homo sapiens, read-out: % Inhibition of mitosis in PBMC cells at 5 μg/mL. An outline of the steps: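 Healthy-donor PBMCs (3 million cells per sample) stimulated with 2% PHA for 48 hr, then exposed 20 hr to varying compound concentrations. Demecolcine (0.1 μg/mL) added 2 hr before collection to arrest cells in metaphase; read by flow cytometry gated on lymphocytes.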

The mark [16] stands for this setting: Table 4c1, read-out: LPS Induced Release of Cytokine in d-U937 Cells, IL-8 IC50.
Where [17] appears, read: Table 4c2, different laboratory, read-out: IC50 Values for Inhibition of Cytokine Release, dU937 cells, IL-8.
The mark [18] stands for this setting: Table 4a2, different laboratory.

Chain of cSrc (P12931 whole entry): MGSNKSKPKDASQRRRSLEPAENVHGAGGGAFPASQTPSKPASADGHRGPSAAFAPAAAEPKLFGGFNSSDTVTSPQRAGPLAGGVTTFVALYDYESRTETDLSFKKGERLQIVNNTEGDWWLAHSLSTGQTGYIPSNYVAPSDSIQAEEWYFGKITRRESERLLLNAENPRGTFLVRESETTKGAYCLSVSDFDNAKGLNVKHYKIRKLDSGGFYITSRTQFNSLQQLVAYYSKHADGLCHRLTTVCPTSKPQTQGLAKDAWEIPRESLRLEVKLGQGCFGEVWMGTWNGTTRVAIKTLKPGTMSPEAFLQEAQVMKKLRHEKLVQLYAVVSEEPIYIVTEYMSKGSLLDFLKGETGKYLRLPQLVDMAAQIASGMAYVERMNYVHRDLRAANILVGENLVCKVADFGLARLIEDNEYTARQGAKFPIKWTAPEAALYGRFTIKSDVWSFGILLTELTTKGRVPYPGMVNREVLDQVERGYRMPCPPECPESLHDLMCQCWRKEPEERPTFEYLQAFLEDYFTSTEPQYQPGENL
T1 sequence (P49840 whole entry): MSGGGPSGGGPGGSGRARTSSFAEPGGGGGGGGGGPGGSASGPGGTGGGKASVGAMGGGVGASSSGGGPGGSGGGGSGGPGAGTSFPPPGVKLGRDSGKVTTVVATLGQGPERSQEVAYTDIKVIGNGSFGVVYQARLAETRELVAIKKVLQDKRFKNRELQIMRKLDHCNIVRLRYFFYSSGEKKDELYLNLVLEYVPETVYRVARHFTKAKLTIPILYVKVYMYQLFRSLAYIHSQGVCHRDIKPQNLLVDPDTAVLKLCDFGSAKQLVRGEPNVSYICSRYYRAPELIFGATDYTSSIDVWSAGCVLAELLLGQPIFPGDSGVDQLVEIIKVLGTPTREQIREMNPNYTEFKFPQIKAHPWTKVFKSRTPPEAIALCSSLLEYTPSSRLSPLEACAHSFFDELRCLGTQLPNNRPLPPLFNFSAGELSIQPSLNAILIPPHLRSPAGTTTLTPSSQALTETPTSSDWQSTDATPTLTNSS
T2 sequence (Q12809 whole entry): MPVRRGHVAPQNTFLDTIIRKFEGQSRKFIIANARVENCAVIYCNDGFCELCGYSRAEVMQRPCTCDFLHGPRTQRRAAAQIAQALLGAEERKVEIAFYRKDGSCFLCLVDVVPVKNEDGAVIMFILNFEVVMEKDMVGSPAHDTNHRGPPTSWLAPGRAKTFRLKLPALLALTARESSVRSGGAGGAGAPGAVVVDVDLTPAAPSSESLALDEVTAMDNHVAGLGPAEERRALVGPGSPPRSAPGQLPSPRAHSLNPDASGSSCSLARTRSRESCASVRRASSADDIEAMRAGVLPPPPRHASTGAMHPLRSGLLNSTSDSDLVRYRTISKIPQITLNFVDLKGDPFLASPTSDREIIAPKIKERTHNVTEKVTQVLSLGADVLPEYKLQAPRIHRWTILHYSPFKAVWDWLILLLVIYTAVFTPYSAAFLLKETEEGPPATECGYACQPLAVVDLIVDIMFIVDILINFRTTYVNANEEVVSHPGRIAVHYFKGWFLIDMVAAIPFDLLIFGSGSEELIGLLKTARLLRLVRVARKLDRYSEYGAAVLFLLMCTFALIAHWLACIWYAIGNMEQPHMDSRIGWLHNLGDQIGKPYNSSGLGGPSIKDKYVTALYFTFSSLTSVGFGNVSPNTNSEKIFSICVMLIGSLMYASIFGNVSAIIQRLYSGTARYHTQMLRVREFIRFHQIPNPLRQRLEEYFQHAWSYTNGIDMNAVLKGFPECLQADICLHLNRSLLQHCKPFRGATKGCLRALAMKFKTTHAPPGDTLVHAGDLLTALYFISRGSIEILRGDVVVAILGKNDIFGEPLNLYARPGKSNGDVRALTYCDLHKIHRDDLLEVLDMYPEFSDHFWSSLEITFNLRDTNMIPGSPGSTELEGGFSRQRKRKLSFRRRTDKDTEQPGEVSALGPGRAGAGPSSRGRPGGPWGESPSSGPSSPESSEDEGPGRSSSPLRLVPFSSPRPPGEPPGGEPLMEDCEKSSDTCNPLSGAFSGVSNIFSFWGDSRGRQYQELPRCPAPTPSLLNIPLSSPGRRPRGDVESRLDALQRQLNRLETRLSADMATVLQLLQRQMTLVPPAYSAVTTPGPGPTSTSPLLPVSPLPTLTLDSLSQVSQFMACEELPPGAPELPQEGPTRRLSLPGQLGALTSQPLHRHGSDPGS
Chain of p38 MAPKα isoform (MAPK14) (Q16539 whole entry, canonical isoform): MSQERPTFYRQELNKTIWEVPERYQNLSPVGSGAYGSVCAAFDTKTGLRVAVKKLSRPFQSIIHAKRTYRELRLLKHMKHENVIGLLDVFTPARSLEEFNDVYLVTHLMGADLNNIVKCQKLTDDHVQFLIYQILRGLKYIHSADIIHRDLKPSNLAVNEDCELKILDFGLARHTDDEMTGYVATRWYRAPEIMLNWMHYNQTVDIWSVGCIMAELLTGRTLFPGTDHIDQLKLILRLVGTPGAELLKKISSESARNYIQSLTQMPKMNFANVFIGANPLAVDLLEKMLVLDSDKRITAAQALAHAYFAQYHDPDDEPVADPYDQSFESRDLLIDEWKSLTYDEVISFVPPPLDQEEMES

`COc1ccc(Nc2nccc(Oc3ccc(NC(=O)Nc4cc(C(C)(C)C)nn4-c4ccc(C)cc4)c4ccccc34)n2)cc1C(=O)NCCN1CCOCC1` [Example 13, 5-((4-((4-(3-(3-(tert-Butyl)-1-(p-tolyl)-1H-pyrazol-5-yl)ureido)naphthalen-1-yl)oxy)pyrimidin-2-yl)amino)-2-methoxy-N-(2-morpholinoethyl)benzamide]: the IC50 stood at 672 nM in data set [1]; 0.3 nM in data set [2] (setting [16]); 1.7 nM in data set [4]; 2 nM in data set [6] (Table 4a1); 16 nM in data set [7] (Table 4a1); 24 nM in data set [8]. Moreover, the “Cell viability at time point in d-U937 cells, 4 h” value in data set [3] is “−ve (−ve and +ve indicate that the value is below and above respectively, the no significant effect threshold, defined as 30% inhibition at 1 μg/mL at the time point indicated)”. The “Cell viability at time point in d-U937 cells, 24 h” value in [3] was “−ve (−ve and +ve indicate that the value is below and above respectively, the no significant effect threshold, defined as 30% inhibition at 1 μg/mL at the time point indicated)”. Moreover, in [5], the EC50 stood at 0.4 nM.

Turning to `COc1ccc(C(=O)NCCN(C)C)cc1Nc1nccc(Oc2ccc(NC(=O)Nc3cc(C(C)(C)C)nn3-c3ccc(C)cc3)c3ccccc23)n1` [Example 29, 3-((4-((4-(3-(3-(tert-butyl)-1-(p-tolyl)-1H-pyrazol-5-yl)ureido)naphthalen-1-yl)oxy)pyrimidin-2-yl)amino)-N-(2-(dimethylamino)ethyl)-4-methoxybenzamide], the IC50 was 3210 nM in data set [1]; 13.7 nM in [2] (setting [16]); 15.1 nM in [4]; less than 1 nM in data set [6] (Table 4a1); 147 nM in [7] (Table 4a1); less than 1 nM in data set [8]. Further, the “Cell viability at time point in d-U937 cells, 4 h” value in data set [3] is “−ve (−ve and +ve indicate that the value is below and above respectively, the no significant effect threshold, defined as 30% inhibition at 1 μg/mL at the time point indicated)”. Besides, the “Cell viability at time point in d-U937 cells, 24 h” value in data set [3] is “−ve (−ve and +ve indicate that the value is below and above respectively, the no significant effect threshold, defined as 30% inhibition at 1 μg/mL at the time point indicated)”. Further, the EC50 in data set [5] came to 3.8 nM.

As for `C#Cc1cc(Nc2nccc(Oc3ccc(NC(=O)Nc4cc(C(C)(C)C)nn4-c4ccc(C)cc4)c4ccccc34)n2)cc(C(=O)NCCN2CCOCC2)c1` [Example 75, 3-((4-((4-(3-(3-(tert-Butyl)-1-(p-tolyl)-1H-pyrazol-5-yl)ureido)naphthalen-1-yl)oxy)pyrimidin-2-yl)amino)-5-ethynyl-N-(2-morpholinoethyl)benzamide], the IC50 is 76.9 nM in data set [9]; 1370 nM in data set [10]; 0.3 nM in data set [2] (setting [17]); more than 3000 nM in data set [11]; 0.4 nM in [5]; 3 nM in data set [12]. Also, the IC50 is 11 nM in data set [6] (setting [18]), 28 nM in data set [7] (setting [18]), 1 nM in data set [13] and 1.3 nM in data set [14]. Further, the inhibition at 5 µg/mL in data set [15] is 2.8%.

As for `C#Cc1cc(Nc2nccc(Oc3ccc(NC(=O)Nc4cc(C(C)(C)C)nn4-c4ccc(C)cc4)c4ccccc34)n2)cc(C(=O)N[C@@H](C)CN2CCOCC2)c1` [Example 81, (S)-3-((4-((4-(3-(3-(tert-Butyl)-1-(p-tolyl)-1H-pyrazol-5-yl)ureido)naphthalen-1-yl)oxy)pyrimidin-2-yl)amino)-5-ethynyl-N-(1-morpholinopropan-2-yl)benzamide], the IC50 in data set [9] is 112 nM; in data set [10] it was 10400 nM; in [2] (setting [17]) it was 1.5 nM; in [11], more than 3000 nM; in [5] it was 1.4 nM; in data set [12], 1.8 nM. Further, the IC50 was found to be 21 nM in data set [6] (setting [18]), 61 nM in [7] (setting [18]), 3.2 nM in data set [13] and 7.4 nM in data set [14]. In addition, the inhibition at 5 µg/mL in data set [15] was -2.6%.

The record behind these values is patent US20140057915A1, “KINASE INHIBITORS” (TOPIVERT PHARMA LIMITED, priority 2012, published 2014).
